According to patent publication US20200275656A1, “TRISUBSTITUTEDSILYLMETHYLPHENOXYQUINOLINES AND ANALOGUES” (Bayer Aktiengesellschaft, priority 2017, published 2020):

Tested on: Pyricularia oryzae
Assay: microbe, parasite or virus in culture
Assay type: cell-based
Conditions: 120 h, read-out: efficacy (inhibition of fungal growth)

`Cc1nc2ccccc2cc1Oc1ccccc1C[Si](C)(C)C` [I.05, 2-methyl-3-{2-[(trimethylsilyl)methyl]phenoxy}quinoline] and `C[Si](C)(Cc1ccccc1Oc1cnc2c(F)cccc2c1)c1cccs1` [I.46, 3-(2-{[dimethyl(2-thienyl)silyl]methyl}phenoxy)-8-fluoroquinoline] fall in the same range of inhibition at 20 ppm: 90 to 100% for the first, 90 to 100% for the second.

Tested on: Colletotrichum lindemuthianum
Assay: Example B: in vitro cell test on Colletotrichum lindemuthianum
Assay type: cell-based
Conditions: 120 h, 20 ppm of active ingredient, liquid culture, 5 days incubation, read-out: efficacy (inhibition of fungal growth)

`C[Si](C)(O)Cc1c(Cl)cccc1Oc1cnc2ccccc2c1` [I.25, [2-chloro-6-(quinolin-3-yloxy)benzyl](dimethyl)silanol] and `C[Si](C)(Cc1ccccc1Oc1cnc2c(F)cccc2c1)c1cccs1` [I.46, 3-(2-{[dimethyl(2-thienyl)silyl]methyl}phenoxy)-8-fluoroquinoline] fall in the same range of inhibition at 20 ppm: 90 to 100% for the first, 90 to 100% for the second.

Work on `Cc1nc2ccccc2cc1Oc1ccccc1C[Si](C)(C)C` [I.05, 2-methyl-3-{2-[(trimethylsilyl)methyl]phenoxy}quinoline] yielded an inhibition at 20 ppm of 90 to 100%.

Tested on: not listed separately
Assay: log P determination by HPLC on reversed-phase column (C 18), EEC Directive 79/831 Annex V.A8
Assay type: physicochemical
Conditions: Table 1; HPLC, 40° C., 0.1% aqueous formic acid and acetonitrile
Description: In table 1, the log P values were determined in accordance with EEC Directive 79/831 Annex V.A8 by HPLC (High Performance Liquid Chromatography) on a reversed-phase column (C 18), using the method described below:
temperature: 40° C.; mobile phases: 0.1% aqueous formic acid and acetonitrile; linear gradient from 10% acetonitrile to 95% acetonitrile; Calibration was carried out using unbranched alkan-2-ones (comprising 3 to 16 carbon atoms) with known log P values (determination of the log P values by the retention times using linear interpolation between two successive alkanones). lambda-max-values were determined using UV-spectra from 200 nm to 400 nm and the peak values of the chromatographic signals.

First: C[Si](C)(C)Cc1ccccc1Oc1cnc2c(F)c(F)ccc2n1 [I.26]
Second: C[Si](C)(C)Cc1ccccc1Oc1cnc2c(F)cccc2n1 [I.12]
The logP of the first is higher: 5.54 for the first, 5.26 for the second.

Compared with `C[Si](C)(Cc1c(F)cccc1Oc1cnc2ccccc2c1)c1ccccc1` [I.41], `C[Si](C)(Cc1c(Cl)cccc1Oc1cnc2ccccc2c1)c1ccccc1` [I.53] is higher in logP: 5.91 for the first, 6.43 for the second.

Compared with `Cc1nc2c(F)c(F)ccc2nc1Oc1cccc(Cl)c1C[Si](C)(C)O` [I.49], `Cc1nc2c(F)c(F)ccc2nc1Oc1cccc(Cl)c1C[Si](C)(C)C` [I.44] is higher in logP: 4.13 for the first, 6.40 for the second.

Going from `C[Si](C)(C)Cc1c(F)cccc1Oc1cnc2c(F)c(F)ccc2n1` [I.33] to `C[Si](C)(C)Cc1c(F)cccc1Oc1cnc2c(C(F)(F)F)cccc2n1` [I.48], the logP rises from 5.60 to 6.04.

Compared with `C[Si](C)(C)Cc1cc(Cl)ccc1Nc1cnc2c(C(F)(F)F)cccc2c1` [I.55], `C[Si](C)(C)Cc1cc(F)ccc1Nc1cnc2c(C(F)(F)F)cccc2c1` [I.42] is lower in logP: 6.00 for the first, 5.54 for the second.

First: C=C[Si](C)(C)Cc1c(Cl)cccc1Oc1cnc2ccccc2c1 [I.27]
Second: C=C[Si](C)(C)Cc1c(F)cccc1Oc1cnc2ccccc2c1 [I.15]
The logP of the first is higher: 6.11 for the first, 5.57 for the second.

Going from `COc1ccccc1[Si](C)(C)Cc1c(Cl)cccc1Oc1cnc2ccccc2c1` [I.62] to `COc1ccccc1[Si](C)(C)Cc1c(F)cccc1Oc1cnc2ccccc2c1` [I.61], the logP falls from 6.50 to 6.01.

First: C[Si](C)(C)Cc1ccccc1Oc1cnc2c(C(F)(F)F)cccc2c1 [I.35]
Second: Cc1cccc2cc(Oc3ccccc3C[Si](C)(C)C)cnc12 [I.06]
The logP of the first is lower: 6.28 for the first, 6.60 for the second.

Compared with `Cc1cccc2cc(Nc3ccc(Cl)cc3C[Si](C)(C)C)cnc12` [I.28], `Cc1cccc2cc(Nc3ccc(F)cc3C[Si](C)(C)C)cnc12` [I.16] is lower in logP: 5.38 for the first, 4.56 for the second.

First: C[Si](C)(C)Cc1ccccc1Cc1cnc2ccccc2c1 [I.01]
Second: C[Si](C)(O)Cc1ccccc1Cc1cnc2ccccc2c1 [I.03]
The logP of the first is higher: 4.28 for the first, 2.13 for the second.

Going from `C[Si](C)(C)Cc1cc(Cl)ccc1Nc1cnc2ccccc2c1` [I.21] to `C[Si](C)(C)Cc1cc(F)ccc1Nc1cnc2ccccc2c1` [I.08], the logP falls from 4.39 to 3.69.

First: Cc1nc2ccccc2cc1Oc1ccc(Cl)cc1C[Si](C)(C)C [I.29]
Second: Cc1nc2ccccc2cc1Oc1ccc(F)cc1C[Si](C)(C)C [I.20]
The logP of the first is higher: 5.71 for the first, 5.01 for the second.

`Cc1nc2c(F)c(F)ccc2nc1Oc1c(F)cccc1C[Si](C)(C)C` [I.36] and `Cc1nc2c(F)c(F)ccc2nc1Oc1ccccc1C[Si](C)(C)C` [I.32] are within 0.2 log units of each other in logP: 5.87 for the first, 5.81 for the second.

Compared with `Cc1cccc2cc(Oc3ccccc3C[Si](C)(C)c3ccccc3)cnc12` [I.38], `C[Si](C)(Cc1ccccc1Oc1cnc2c(F)cccc2c1)c1ccccc1` [I.40] is lower in logP: 6.83 for the first, 5.78 for the second.

`Cc1nc2ccccc2cc1Oc1cccc(F)c1C[Si](C)(C)C` [I.18] and `C[Si](C)(C)Cc1c(F)cccc1Oc1cnc2ccccc2c1` [I.11] are within 0.2 log units of each other in logP: 5.38 for the first, 5.54 for the second.

Going from `COc1ccc([Si](C)(C)Cc2c(F)cccc2Oc2cnc3ccccc3c2)cc1` [I.60] to `COc1ccc([Si](C)(C)Cc2c(Cl)cccc2Oc2cnc3ccccc3c2)cc1` [I.63], the logP rises from 5.65 to 6.20.

Compared with `C[Si](C)(C)Cc1ccccc1Oc1cnc2c(C(F)(F)F)cccc2n1` [I.37], `C[Si](C)(C)Cc1c(Cl)cccc1Oc1cnc2c(C(F)(F)F)cccc2n1` [I.57] is higher in logP: 5.97 for the first, 6.51 for the second.

Going from `Cc1cccc2cc(Oc3cccc(F)c3C[Si](C)(C)c3ccccc3)cnc12` [I.51] to `Cc1cccc2cc(Oc3cccc(F)c3C[Si](C)(C)C)cnc12` [I.19], the logP falls from 6.90 to 6.70.

First: C[Si](C)(C)Cc1c(Cl)cccc1Oc1cnc2ccccc2c1 [I.22]
Second: C[Si](C)(C)Cc1ccccc1Oc1cnc2ccccc2c1 [I.02]
The logP of the first is higher: 6.17 for the first, 5.48 for the second.

Compared with `Cc1nc2ccccc2nc1Oc1ccccc1C[Si](C)(C)C` [I.07], `C[Si](C)(C)Cc1ccccc1Oc1cnc2ccccc2n1` [I.04] is lower in logP: 5.59 for the first, 5.36 for the second.

`COc1ccc([Si](C)(C)Cc2ccccc2Oc2cnc3c(F)cccc3c2)cc1` [I.59] and `C[Si](C)(C)Cc1ccccc1Oc1cnc2c(F)cccc2c1` [I.10] are within 0.2 log units of each other in logP: 5.62 for the first, 5.45 for the second.

Going from `C[Si](C)(C)Cc1c(F)cccc1Oc1cnc2c(C(F)(F)F)cccc2c1` [I.45] to `C[Si](C)(C)Cc1ccccc1Oc1cnc2c(F)c(F)ccc2c1` [I.24], the logP falls from 6.32 to 5.72.

Compared with `C[Si](C)(C)Cc1ccc(Nc2cnc3ccccc3c2)c(C[Si](C)(C)C)c1` [I.43], `Cc1cccc2cc(Nc3ccc(C[Si](C)(C)C)cc3C[Si](C)(C)C)cnc12` [I.54] is higher in logP: 5.85 for the first, 6.93 for the second.

Compared with `Cc1nc2c(F)c(F)ccc2cc1Nc1ccccc1C[Si](C)(C)C` [I.30], `C[Si](C)(C)Cc1ccccc1Nc1cnc2c(F)c(F)ccc2c1` [I.23] is lower in logP: 5.32 for the first, 5.03 for the second.

Compared with `C[Si](C)(C)Cc1ccc(Nc2cnc3c(C(F)(F)F)cccc3c2)c(C[Si](C)(C)C)c1` [I.65], `C[Si](C)(C)Cc1ccccc1Nc1cnc2c(F)cccc2c1` [I.09] is lower in logP: 7.36 for the first, 4.77 for the second.

First: C=C[Si](C)(C)Cc1ccccc1Oc1cnc2c(F)cccc2c1 [I.14]
Second: C[Si](C)(O)Cc1c(F)cccc1Oc1cnc2ccccc2c1 [I.13]
The logP of the first is higher: 5.45 for the first, 3.15 for the second.

Going from `Cc1cccc2cc(Nc3ccc(F)cc3C[Si](C)(C)c3ccccc3)cnc12` [I.50] to `Cc1cccc2cc(Nc3ccc(Cl)cc3C[Si](C)(C)c3ccccc3)cnc12` [I.58], the logP rises from 4.90 to 5.68.

First: Cc1nc2c(F)c(F)ccc2cc1Oc1ccc(F)cc1C[Si](C)(C)C [I.34]
Second: C[Si](C)(Cc1cc(F)ccc1Nc1cnc2ccccc2c1)c1ccccc1 [I.39]
The logP of the first is higher: 5.92 for the first, 3.99 for the second.

Compared with `C[Si](C)(Cc1c(F)cccc1Oc1cnc2ccccc2c1)c1cccs1` [I.47], `C[Si](C)(Cc1c(Cl)cccc1Oc1cnc2ccccc2c1)c1cccs1` [I.56] is higher in logP: 5.65 for the first, 6.20 for the second.

Compound `C[Si](C)(Cc1cc(Cl)ccc1Nc1cnc2ccccc2c1)c1ccccc1` [I.52] has a logP of 4.69.

Same assay, conditions: reversed-phase HPLC column (C 18), Table 1; HPLC, 40° C., 0.1% aqueous formic acid and acetonitrile

First: Cc1nc2c(F)cccc2cc1Oc1ccccc1C[Si](C)(C)C [I.17, 8-fluoro-2-methyl-3-{2-[(trimethylsilyl)methyl]phenoxy}quinoline]
Second: Cc1nc2ccccc2cc1Oc1ccccc1C[Si](C)(C)C [I.05, 2-methyl-3-{2-[(trimethylsilyl)methyl]phenoxy}quinoline]
The chromatographic logP of the first is higher: 5.85 for the first, 5.05 for the second.

First: C[Si](C)(O)Cc1c(Cl)cccc1Oc1cnc2ccccc2c1 [I.25, [2-chloro-6-(quinolin-3-yloxy)benzyl](dimethyl)silanol]
Second: C[Si](C)(Cc1ccccc1Oc1cnc2c(F)cccc2c1)c1cccs1 [I.46, 3-(2-{[dimethyl(2-thienyl)silyl]methyl}phenoxy)-8-fluoroquinoline]
The chromatographic logP of the first is lower: 3.48 for the first, 5.6 for the second.

Same assay, conditions: reversed-phase HPLC column (C 18), Table 2, compounds of formula (IIa); defined as for table 1

Going from `ClCc1c(Cl)cccc1Oc1cnc2ccccc2c1` [IIa.01, 3-[3-chloro-2-(chloromethyl)phenoxy]quinoline] to `Fc1cccc(Oc2cnc3ccccc3c2)c1CCl` [IIa.02, 3-[2-(chloromethyl)-3-fluorophenoxy]quinoline], the chromatographic logP falls from 3.94 to 3.57.

With `Fc1cccc2cc(Oc3ccccc3CBr)cnc12` [IIa.03, 3-[2-(bromomethyl)phenoxy]-8-fluoroquinoline] the chromatographic logP was 3.58.

Same assay, conditions: reversed-phase HPLC column (C 18), Table 3, compounds of formula (V); defined as for table 1

For `OCc1ccccc1Oc1cnc2c(F)cccc2c1` [V.01, {2-[(8-fluoroquinolin-3-yl)oxy]phenyl}methanol], the chromatographic logP was 2.17.

Same assay, conditions: reversed-phase HPLC column (C 18), stated in preparation examples

First: Cc1nc2c(F)cccc2cc1Oc1ccccc1C[Si](C)(C)C [I.17, 8-fluoro-2-methyl-3-{2-[(trimethylsilyl)methyl]phenoxy}quinoline]
Second: Cc1nc2ccccc2cc1Oc1ccccc1C[Si](C)(C)C [I.05, 2-methyl-3-{2-[(trimethylsilyl)methyl]phenoxy}quinoline]
The chromatographic logP of the first is higher: 5.85 for the first, 5.05 for the second.

`C[Si](C)(O)Cc1c(Cl)cccc1Oc1cnc2ccccc2c1` [I.25, [2-chloro-6-(quinolin-3-yloxy)benzyl](dimethyl)silanol] and `Fc1cccc2cc(Oc3ccccc3CBr)cnc12` [IIa.03, 3-[2-(bromomethyl)phenoxy]-8-fluoroquinoline] are within 0.2 log units of each other in chromatographic logP: 3.48 for the first, 3.65 for the second.

`C[Si](C)(Cc1ccccc1Oc1cnc2c(F)cccc2c1)c1cccs1` [I.46, 3-(2-{[dimethyl(2-thienyl)silyl]methyl}phenoxy)-8-fluoroquinoline] gave a chromatographic logP of 5.6.
